# Reference: article PMC10721329, “Quisinostat is a brain-penetrant radiosensitizer in glioblastoma” (JCI Insight, 2023)
# “And” between values parts separate entries of the source, which are not always exact repeats. Identical values can stand only once.
# Experiments:
# [1] = Stability in human plasma at 37°C; assay type: in vitro ADME; conditions: for %stability in human plasma, mean / stability in human plasma, [QST], % of control: 37 C; for %stability in human plasma, mean: mean of 3; for stability in human plasma, [QST], % of control: single data points
# Method: (§1) Hydroxamic acid–based compounds have been reported to display poor stability and high plasma clearance due to the presence of arylesterases and carboxylesterases in rodent blood ([34]). Therefore, we measured the stability of QST in mouse plasma and brain to determine whether drug degradation occurred during our sample preparations and equilibrium dialyses for the determination of unbound drug level (performed at 37°C). […] QST degradation was also observed in mouse brain homogenate (Figure 6B). However, perfusion of mice before brain collection prevented rapid drug degradation in the brain matrix. […] Degradation of QST can also be constrained if plasma and brain samples are processed at 4°C (Supplemental Figure 4A). All subsequent sample preparations were therefore performed on ice-cold baths to avoid degradation of QST in our PK analyses. […] The observed stability is probably due to the absence of esterases in human matrices, which are responsible for degradation of QST ([34]). Because we employed QST in several in vitro studies (Figures 1–4), the stability of the molecule was also tested in the cell media used to culture GSCs (neurobasal medium; see Methods).
# (§2) Stability Study in Mouse Plasma, Mouse Brain, Human Plasma, Human Brain, and Neural […]
# The stability of QST was determined in BALB/c mouse plasma, male nude athymic perfused and nonperfused mouse brain homogenate (1:9 w/v of PBS; pH 7.4), human brain (obtained from VRL Eurofins) homogenate (1:4 w/v of PBS; pH 7.4), pooled human plasma (Innovative Research), and neurobasal media. QST stock solutions (1 mM) were prepared in acetonitrile, subsequently diluted in a 40% methanol mixture, and added t o the matrices to make final concentrations of 100 nM or 10 nM. Then 50 or 30 µL of either plasma or brain homogenate containing QST were aliquoted into 1.5-mL microcentrifuge tubes (Eppendorf) and were incubated at either 4 °C or 37 °C for 0, 2, 4, 6, 12, or 24 hours (n = 3 at each time point). […]
# Plasma and brain […]
# homogenate samples were stored at −80 °C until LC-MS/MS analysis. […]
# [2] = Stability in mouse plasma with esterase inhibitors (BNPP, PMSF, DTNB); assay type: in vitro ADME; conditions: 37 C, QST conc 500nM
# Method: as §1, §2
# The stability of QST was determined in BALB/c mouse plasma, male nude athymic perfused and nonperfused mouse brain homogenate (1:9 w/v of PBS; pH 7.4), human brain (obtained from VRL Eurofins) homogenate (1:4 w/v of PBS; pH 7.4), pooled human plasma (Innovative Research), and neurobasal media. QST stock solutions (1 mM) were prepared in acetonitrile, subsequently diluted in a 40% methanol mixture, and added t o the matrices to make final concentrations of 100 nM or 10 nM. Then 50 or 30 µL of either plasma or brain homogenate containing QST were aliquoted into 1.5-mL microcentrifuge tubes (Eppendorf) and were incubated at either 4 °C or 37 °C for 0, 2, 4, 6, 12, or 24 hours (n = 3 at each time point).
# The stability of QST in mouse plasma was also tested at 0, 2, 8, 16, or 24 hours (n = 3 at each time point) in the presence of esterase inhibitors: 0.25 mM BNPP, 1mM dithiobis(2-nitrobenzoic acid) (DTNB), or 1.25 mM phenylmethylsulfonyl fluoride (PMSF). Plasma and brain homogenate samples were stored at −80 °C until LC-MS/MS analysis. […]
# Supplemental Figure 4. Stability of QST in mouse plasma is improved upon addition of esterase inhibitors. (A) Stability of QST (100 nM) in mouse plasma and mouse brain homogenate when sample preparation is performed at 4 °C. (B) Stability of QST (500 nM) in mouse plasma spiked with 3 different esterase inhibitors: 0.25 mM bis(p-nitrophenyl) phosphate (BNPP), 1.25 mM phenylmethylsulfonyl fluoride (PMSF), and 1 mM dithiobis(2-nitrobenzoic acid) (DTNB) over the course of 24 hours at 37 °C. (C) Stability of QST (10 nM and 100 nM) in neurobasal cell culture medium over the course of 24 hours at 37 °C.
compound,measurement,setting,value
"Cn1cc(CNCC2CCN(c3ncc(C(=O)NO)cn3)CC2)c2ccccc21 [QST, quisinostat]","%stability in human plasma, mean","[1]; 10 nM, 0 hrs",100.0 % of control
same,"stability in human plasma, [QST], % of control","[1]; 10 nM, 0 hrs",96.2 % of control and 101.9 % of control
same,"stability in human plasma, [QST], % of control","[1]; 10 nM, 2 hrs",98.7 % of control and 101.4 % of control and 99.6 % of control
same,"%stability in human plasma, mean","[1]; 10 nM, 6 hrs",99.5 % of control
same,"stability in human plasma, [QST], % of control","[1]; 10 nM, 6 hrs",100.4 % of control and 102 % of control and 96.1 % of control
same,"%stability in human plasma, mean","[1]; 10 nM, 24 hrs",97.7 % of control
same,"stability in human plasma, [QST], % of control","[1]; 10 nM, 24 hrs",93.7 % of control and 94.6 % of control and 104.9 % of control
same,"%stability in human plasma, mean","[1]; 100 nM, 0 hrs",100.0 % of control
same,"stability in human plasma, [QST], % of control","[1]; 100 nM, 0 hrs",96.3 % of control and 100 % of control and 103.7 % of control
same,"%stability in human plasma, mean","[1]; 100 nM, 2 hrs",102.1 % of control
same,"stability in human plasma, [QST], % of control","[1]; 100 nM, 2 hrs",105.4 % of control and 102.2 % of control and 98.8 % of control
same,"%stability in human plasma, mean","[1]; 100 nM, 6 hrs",103.6 % of control
same,"stability in human plasma, [QST], % of control","[1]; 100 nM, 6 hrs",105.9 % of control and 102.8 % of control and 102 % of control
same,"%stability in human plasma, mean","[1]; 100 nM, 24 hrs",99.0 % of control
same,"stability in human plasma, [QST], % of control","[1]; 100 nM, 24 hrs",101.6 % of control and 97 % of control and 98.2 % of control
same,stability in human plasma,[1]; 37°C,completely stable
same,%stability,"[2]; mouse plasma with 0.25mM BNPP, time 0",107.9% and 91.2% and 100.9%
same,%stability,"[2]; mouse plasma with 0.25mM BNPP, time 0, mean",100.0%
same,%stability,"[2]; mouse plasma with 0.25mM BNPP, time 2",64.6% and 83.0% and 82.7%
same,%stability,"[2]; mouse plasma with 0.25mM BNPP, time 2, mean",76.8%
same,%stability,"[2]; mouse plasma with 0.25mM BNPP, time 8",61.2% and 65.8% and 67.9%
same,%stability,"[2]; mouse plasma with 0.25mM BNPP, time 8, mean",65.0%
same,%stability,"[2]; mouse plasma with 0.25mM BNPP, time 16",53.0% and 52.9% and 53.7%
same,%stability,"[2]; mouse plasma with 0.25mM BNPP, time 16, mean",53.2%
same,%stability,"[2]; mouse plasma with 0.25mM BNPP, time 24",47.9% and 55.7% and 51.9%
same,%stability,"[2]; mouse plasma with 0.25mM BNPP, time 24, mean",51.8%
same,%stability,"[2]; mouse plasma with 1mM DTNB, time 0",107.9% and 91.2% and 100.9%
same,%stability,"[2]; mouse plasma with 1mM DTNB, time 0, mean",100.0%
same,%stability,"[2]; mouse plasma with 1mM DTNB, time 2",20.7% and 19.1% and 20.9%
same,%stability,"[2]; mouse plasma with 1mM DTNB, time 2, mean",20.2%
same,%stability,"[2]; mouse plasma with 1mM DTNB, time 8",0.277% and 0.7%
same,%stability,"[2]; mouse plasma with 1mM DTNB, time 8, mean",0.5%
same,%stability,"[2]; mouse plasma with 1mM DTNB, time 16",0.6% and 0.5%
same,%stability,"[2]; mouse plasma with 1mM DTNB, time 16, mean",0.545%
same,%stability,"[2]; mouse plasma with 1mM DTNB, time 24",0.7% and 0.6% and 0.25%
same,%stability,"[2]; mouse plasma with 1mM DTNB, time 24, mean",0.5%
same,%stability,"[2]; mouse plasma with 1.25mM PMFS, time 0",107.9% and 91.2% and 100.9%
same,%stability,"[2]; mouse plasma with 1.25mM PMFS, time 0, mean",100.0%
same,%stability,"[2]; mouse plasma with 1.25mM PMFS, time 2",61.9% and 64.2% and 59.2%
same,%stability,"[2]; mouse plasma with 1.25mM PMFS, time 2, mean",61.8%
same,%stability,"[2]; mouse plasma with 1.25mM PMFS, time 8",26.3% and 24.6% and 23.5%
same,%stability,"[2]; mouse plasma with 1.25mM PMFS, time 8, mean",24.8%
same,%stability,"[2]; mouse plasma with 1.25mM PMFS, time 16",6.1% and 5.9% and 7.1%
same,%stability,"[2]; mouse plasma with 1.25mM PMFS, time 16, mean",6.4%
same,%stability,"[2]; mouse plasma with 1.25mM PMFS, time 24",4.3% and 3.8%
same,%stability,"[2]; mouse plasma with 1.25mM PMFS, time 24, mean",4.0%
